# Results taken from ChEMBL document CHEMBL1201862, “PubChem BioAssay data set” (2004).
#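 All cell lines were grown in 96-well plates and treated with compound for 48 hours. GI50: concentration for 50% inhibition of growth.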 Calls of active or inactive are those of the source. Rule as the data show it: active = GI50 up to about 1.1 µM and inactive = higher.
# How the values were obtained:
# Experiment in all cases: DTP human tumour cell line panel, 48 h
# 786-0 = test system: 786-0
# A498 = test system: A498
# A549 = test system: A549
# ACHN = test system: ACHN
# CAKI-1 = test system: CAKI-1
# CCRF-CEM = test system: CCRF-CEM
# COLO 205 = test system: COLO 205
# DLD-1 = test system: DLD-1
# DMS-114 = test system: DMS-114
# DMS-273 = test system: DMS-273
# EKVX = test system: EKVX
# HCC 2998 = test system: HCC 2998
# HCT-116 = test system: HCT-116
# HCT-15 = test system: HCT-15
# HL-60 = test system: HL-60
# HOP-18 = test system: HOP-18
# HOP-62 = test system: HOP-62
# HOP-92 = test system: HOP-92
# HT-29 = test system: HT-29
# IGROV-1 = test system: IGROV-1
# K562 = test system: K562
# KM-20L2 = test system: KM-20L2
# KM12 = test system: KM12
# LOX IMVI = test system: LOX IMVI
# LXFL 529 = test system: LXFL 529
# M14 = test system: M14
# MOLT-4 = test system: MOLT-4
# Malme-3M = test system: Malme-3M
# NCI-H226 = test system: NCI-H226
# NCI-H23 = test system: NCI-H23
# NCI-H460 = test system: NCI-H460
# NCI-H522 = test system: NCI-H522
# OVCAR-3 = test system: OVCAR-3
# OVCAR-5 = test system: OVCAR-5
# OVCAR-8 = test system: OVCAR-8
# RPMI-8226 = test system: RPMI-8226
# RXF 393 = test system: RXF 393
# RXF 631 = test system: RXF 631
# SF-268 = test system: SF-268
# SF-295 = test system: SF-295
# SF-539 = test system: SF-539
# SK-MEL-28 = test system: SK-MEL-28
# SK-MEL-2 = test system: SK-MEL-2
# SK-MEL-5 = test system: SK-MEL-5
# SK-OV-3 = test system: SK-OV-3
# SN12C = test system: SN12C
# SNB-19 = test system: SNB-19
# SNB-75 = test system: SNB-75
# SNB-78 = test system: SNB-78
# SR = test system: SR
# SW-620 = test system: SW-620
# TK-10 = test system: TK-10
# U-251 = test system: U-251
# UACC-257 = test system: UACC-257
# UACC-62 = test system: UACC-62
# UO-31 = test system: UO-31
# XF498 = test system: XF498
# M19-MEL = test system: M19-MEL
# OVCAR-4 = test system: OVCAR-4
smiles,measurement,setting,value
NC(=O)OCC(COc1ccc(Cl)cc1)OC(=O)c1cc([N+](=O)[O-])cc([N+](=O)[O-])c1 (centres undefined),GI50,786-0,41.6 µM (inactive)
same,GI50,A498,> 100 µM (inactive)
same,GI50,A549,> 100 µM (inactive)
same,GI50,ACHN,> 100 µM (inactive)
same,GI50,CAKI-1,> 100 µM (inactive)
same,GI50,CCRF-CEM,97.3 µM (inactive)
same,GI50,COLO 205,39 µM (inactive)
same,GI50,DLD-1,55.2 µM (inactive)
same,GI50,DMS-114,35.1 µM (inactive)
same,GI50,DMS-273,> 100 µM (inactive)
same,GI50,EKVX,> 100 µM (inactive)
same,GI50,HCC 2998,> 100 µM (inactive)
same,GI50,HCT-116,35.8 µM (inactive)
same,GI50,HCT-15,33.5 µM
same,GI50,HL-60,> 100 µM (inactive)
same,GI50,HOP-18,> 100 µM (inactive)
same,GI50,HOP-62,> 100 µM (inactive)
same,GI50,HOP-92,> 100 µM (inactive)
same,GI50,HT-29,> 100 µM (inactive)
same,GI50,IGROV-1,> 100 µM (inactive)
same,GI50,K562,37.2 µM (inactive)
same,GI50,KM-20L2,> 100 µM (inactive)
same,GI50,KM12,> 100 µM (inactive)
same,GI50,LOX IMVI,17.9 µM (inactive)
same,GI50,LXFL 529,> 100 µM (inactive)
same,GI50,M14,> 100 µM (inactive)
same,GI50,MOLT-4,> 100 µM (inactive)
same,GI50,Malme-3M,> 100 µM (inactive)
same,GI50,NCI-H226,> 100 µM (inactive)
same,GI50,NCI-H23,> 100 µM (inactive)
same,GI50,NCI-H460,40.6 µM (inactive)
same,GI50,NCI-H522,79.3 µM (inactive)
same,GI50,OVCAR-3,> 100 µM (inactive)
same,GI50,OVCAR-5,> 100 µM (inactive)
same,GI50,OVCAR-8,> 100 µM (inactive)
same,GI50,RPMI-8226,> 100 µM (inactive)
same,GI50,RXF 393,> 100 µM (inactive)
same,GI50,RXF 631,> 100 µM (inactive)
same,GI50,SF-268,> 100 µM (inactive)
same,GI50,SF-295,> 100 µM (inactive)
same,GI50,SF-539,> 100 µM (inactive)
same,GI50,SK-MEL-28,> 100 µM (inactive)
same,GI50,SK-MEL-2,71.6 µM (inactive)
same,GI50,SK-MEL-5,> 100 µM (inactive)
same,GI50,SK-OV-3,> 100 µM (inactive)
same,GI50,SN12C,> 100 µM (inactive)
same,GI50,SNB-19,> 100 µM (inactive)
same,GI50,SNB-75,> 100 µM (inactive)
same,GI50,SNB-78,> 100 µM (inactive)
same,GI50,SR,> 100 µM (inactive)
same,GI50,SW-620,13.2 µM (inactive)
same,GI50,TK-10,> 100 µM (inactive)
same,GI50,U-251,> 100 µM (inactive)
same,GI50,UACC-257,> 100 µM (inactive)
same,GI50,UACC-62,> 100 µM (inactive)
same,GI50,UO-31,> 100 µM (inactive)
same,GI50,XF498,58.2 µM (inactive)
COc1ccc(Cc2c3cc(O)c([O-])cc3cc[n+]2C)cc1,GI50,786-0,10.2 µM (inactive)
same,GI50,A498,42 µM (inactive)
same,GI50,A549,30.8 µM (inactive)
same,GI50,ACHN,6.93 µM (inactive)
same,GI50,CAKI-1,8.55 µM (inactive)
same,GI50,CCRF-CEM,4.95 µM (inactive)
same,GI50,COLO 205,39.1 µM (inactive)
same,GI50,DLD-1,10.6 µM (inactive)
same,GI50,DMS-114,12.8 µM (inactive)
same,GI50,DMS-273,16.5 µM (inactive)
same,GI50,EKVX,> 73.6 µM (inactive)
same,GI50,HCC 2998,42.6 µM (inactive)
same,GI50,HCT-116,19.4 µM (inactive)
same,GI50,HL-60,16.3 µM (inactive)
same,GI50,HOP-18,36.1 µM (inactive)
same,GI50,HOP-62,10.3 µM (inactive)
same,GI50,HOP-92,47.9 µM (inactive)
same,GI50,HT-29,52.7 µM (inactive)
same,GI50,IGROV-1,30.3 µM (inactive)
same,GI50,K562,6.61 µM (inactive)
same,GI50,KM-20L2,51.1 µM (inactive)
same,GI50,KM12,40.2 µM (inactive)
same,GI50,LOX IMVI,13.3 µM (inactive)
same,GI50,M14,11.4 µM (inactive)
same,GI50,M19-MEL,20.7 µM (inactive)
same,GI50,MOLT-4,10.2 µM (inactive)
same,GI50,Malme-3M,30.7 µM (inactive)
same,GI50,NCI-H226,25.7 µM (inactive)
same,GI50,NCI-H23,29.8 µM (inactive)
same,GI50,NCI-H460,5.68 µM (inactive)
same,GI50,NCI-H522,23.3 µM (inactive)
same,GI50,OVCAR-3,27.7 µM (inactive)
same,GI50,OVCAR-4,51.3 µM (inactive)
same,GI50,OVCAR-5,33.7 µM (inactive)
same,GI50,OVCAR-8,29 µM (inactive)
same,GI50,RPMI-8226,28.4 µM (inactive)
same,GI50,RXF 393,11.8 µM (inactive)
same,GI50,RXF 631,6.49 µM (inactive)
same,GI50,SF-268,13.5 µM (inactive)
same,GI50,SF-295,19.9 µM (inactive)
same,GI50,SF-539,19.1 µM (inactive)
same,GI50,SK-MEL-28,22.3 µM (inactive)
same,GI50,SK-MEL-2,65.9 µM (inactive)
same,GI50,SK-MEL-5,20.6 µM (inactive)
same,GI50,SK-OV-3,41.5 µM (inactive)
same,GI50,SN12C,21 µM (inactive)
same,GI50,SNB-19,35 µM (inactive)
same,GI50,SNB-75,48.2 µM (inactive)
same,GI50,SNB-78,> 100 µM (inactive)
same,GI50,SR,5.86 µM (inactive)
same,GI50,SW-620,36.1 µM (inactive)
same,GI50,TK-10,98.4 µM (inactive)
same,GI50,U-251,12.7 µM (inactive)
same,GI50,UACC-257,28.4 µM (inactive)
same,GI50,UACC-62,23.9 µM (inactive)
same,GI50,UO-31,9.95 µM (inactive)
same,GI50,XF498,18.4 µM (inactive)
